Reference: ChEMBL document CHEMBL1144152, “Oceanapiside, an antifungal bis-alpha,omega-amino alcohol glycoside from the marine sponge Oceanapia phillipensis” (1999)
≈ marks a conversion by molar mass, not a printed value. Calls of active or inactive are those of the source. The rule behind the calls is not given here.

Columns and labels:
Candida albicans [1] = experiment: Antifungal activity against fluconazole-resistant Candida albicans UCD-FR1; format: functional, organism-based
Pichia kudriavzevii = experiment: Antifungal activity against Candida krusei; format: functional, organism-based
Nakaseomyces glabratus = experiment: Antifungal activity against fluconazole-resistant Candida glabrata by broth dilution method; format: functional
Candida albicans [2] = experiment: Antifungal activity against Candida albicans ATCC 14503; format: functional, organism-based
Candida albicans [3] = experiment: Antifungal activity against fluconazole-resistant Candida albicans 96-489; format: functional, organism-based

Structure (SMILES) | Activity (Candida albicans [1]) | Activity (Pichia kudriavzevii) | MIC (Nakaseomyces glabratus) | Activity (Candida albicans [2]) | Activity (Candida albicans [3])
C[C@@H](N)[C@H](O)CCCCCCCCCCCCCCC(=O)CCCCCCC[C@@H](O[C@@H]1O[C@H](CO)[C@@H](O)[C@H](O)[C@H]1O)[C@@H](N)CO | inactive | inactive | 10 µg/mL (≈ 15.4 µM) | inactive | inactive
C[C@@H](N)[C@H](O)CCCCCCCCCCCCCCC(=O)CCCCCCC[C@@H](O)[C@@H](N)CO | – | – | 3 µg/mL (≈ 6.16 µM) | – | –
C[C@@H]1[C@H](O)[C@@H](C)/C=C/C=C/C=C/C=C/C=C/C=C/C=C/[C@H](O[C@@H]2O[C@H](C)[C@@H](O)[C@H](N)[C@@H]2O)C[C@@H]2O[C@](O)(C[C@@H](O)C[C@@H](O)[C@H](O)CC[C@@H](O)C[C@@H](O)CC(=O)O[C@H]1C)C[C@H](O)[C@H]2C(=O)O [AMPHOTERICIN B] | – | – | 1 µg/mL (≈ 1.08 µM) | – | –
